Read-outs that look alike come from different tables or passages of the source.
What was measured:
rat primary hepatocytes [1] = experiment: Post-thaw cell viability after cryopreservation (Live-Dead staining); format: cell-based; conditions: for post-thaw cell viability vs control: 20% DMSO or 20% glycerol in DMEM as CPA, one week at −80° C., 24 hours recuperation, FIG. 2 and 3; for cell survival with glycerol as the CPA compared with DMSO: treated cells, glycerol vs DMSO as cryoprotectant
Procedure: Cryopreservation of Treated and Control Samples. After treatment of cell cultures for 12 hours, samples were removed from the incubator and placed on ice to reduce the cell temperature to 4° C. to minimize the toxicity of the cryoprotecting agent (CPA). Two different CPA solutions, 20% dimethyl sulfoxide in DMEM media and 20% glycerol in DMEM media were used. The CPA solution (1 mL) was added to the samples and incubated at 4° C. for 10 minutes to reach equilibrium. Samples were transferred to the CryoMed Control Rate freezer (Thermo Forma, Waltham, Mass.).
The controlled cooling process was initiated at 4° C. and a cooling rate of 1° C./min was maintained until −16° C. followed by a cooling rate of 2° C./min until −36° C./min, and thereafter a cooling rate of 10° C./min until a temperature of −80° C. was achieved. The samples were further maintained at −80° C. for 5 minutes to ensure equilibrium. At the end of the freezing process, the samples were transferred immediately to a −80° C. Revco freezer (Kendro Laboratory, Ashville, N.C.) and stored for a week.
Evaluation of Post-thaw Cell Viability. The cryopreserved samples from the −80° C. freeze were transferred to a sterile glass box and plated in a water bath maintained at 37° C. until the media in the frozen samples completely thawed. At this juncture, the samples were between 5-10° C. Immediately, the CPA containing media in the samples was aspirated to prevent any toxicity to the cells. DMEM (1 mL) was added to the samples and incubated at 37° C. for 10 minutes. After 10 minutes of incubation, the media in the samples was again refreshed in order to remove any remaining traces of CPA. These samples were then placed in the incubator at 37° C., 5% CO2 for 24 hours and allowed to recuperate from the freeze-thaw process.
After 24 hours of recuperation time, cell viability of the samples was determined by using nuclei fluorescence dyes. The samples were washed with 1× PBS solution and incubated with Hoechst Dye (1 μg/mL) and Ethidium Homodimer (2 μM)(Molecular Probes, Eugene, Oreg.) in PBS for 30 minutes. The viability solution was aspirated, and samples were fixed by adding 10% formalin (1 mL) (VWR, West Chester, Pa.) and incubating for 20 minutes. Subsequently, the cell viability was examined with a confocal microscope with DAPI (excitation 358 nm; emission 461 nm) and Texas red (excitation 596 nm; emission 620 nm) filters. The fluorescent images obtained were then analyzed using MetaMorp Imaging System.

rat primary hepatocytes [2] = experiment: Cell shrinkage analysis in hypertonic NaCl solution; format: cell-based; conditions: 5M NaCl, 20 minutes; 12 hours treatment; HgCl2 0.1 mM for 5 min; vs control cells; FIG. 1
Procedure: Cell shrinkage analysis. Cell shrinkage analysis was performed on treated and control samples prepared on tissue culture plates as described above. One culture plate at a time was transferred to an Olympus IX70 microscope (Olympus America Inc, Pa.) mounted with a computer interfaced camera (Hamamatsu Corporation, Bridgewater, N.J.). The media from culture plate was aspirated and 1 mL of 5M NaCl solution was added. Response of the cells to the hypertonic NaCl solution was captured at 40× magnification at one minute intervals for 20 minutes. Images were processed using software MetaMorph Imaging System (Molecular Devices, Sunnyvale, Calif.). Using MetaMorp, the variations of the cross-sectional area of the cells at various sites were measured over time to analyze the shrinkage behavior of the cells in the hypertonic solution.

AQP8 [3] = experiment: Confocal immunofluorescence of AQP8 localization in cultured hepatocytes; format: cell-based, rat; conditions: hepatocytes treated 12 hours; 100 μM Bt2cAMP or 1 μM glucagon; vs control
Procedure: Confocal immunofluorescence. For confocal immunofluorescence experiments, collagen coated chamber slides were used instead of the tissue culture plates. Hepatocytes (5×10^5) were plated on the collagen-coated chamber slides, and incubated at 37° C. for 4 hours. The cells were then treated with a) Bt2cAMP, b) glucagon and c) normal DMEM media (control) and incubated for 12 hours. After the 12 hours, the cells were fixed with 2% formaldehyde for 10 minutes at room temperature and permeabilized with 0.2% Triton X-100 for 2 minutes. The cells were then treated with a blocking solution containing 3% BSA at room temperature and incubated overnight at 4° C. with goat affinity-purified AQP8 antibody (Santa Cruz Biotechnology Inc., Santa Cruz, Calif.) of dilution 1:50 in PBS. Then, the chamber slides were rinsed with PBS solution and treated with Alexa Flour 488—conjugated donkey anti-goat […] secondary antibody (Invitrogen, Calif.) for 1 hour. The dilution of the secondary antibody used was 1:400 in PBS. Then the cells were treated with 1 μg/mL concentration of Hoechst 33342 (Molecular Probes, Eugene, Oreg.) and mounted with Pro- Long (Molecular Probes, Eugene, Oreg.). Fluorescence localization of the AQP8 was then detected by immersion oil confocal microscopy with 100× magnification lens.

AQP8 [4] = conditions: cited from earlier work

Molecule | post-thaw cell viability vs control (rat primary hepatocytes [1]) | post-thaw cell viability of Bt2cAMP-treated vs glucagon-treated samples (rat primary hepatocytes [1]; 12 hrs treatment, most of the culture samples) | cell survival with glycerol as the CPA compared with DMSO (rat primary hepatocytes [1]) | cross-sectional area of cells over time (shrinkage) in hypertonic environment (rat primary hepatocytes [2]) | AQP8 labeling at the cellular membrane (AQP8 [3]) | post-thaw cell viability by CPA used (rat primary hepatocytes [1]; glycerol as CPA compared to DMSO) | increase in the quantity of AQP8 on cellular membrane (AQP8 [4]; treatment of hepatocytes for 16 hours) [%] | increase in the quantity of AQP8 on cellular membrane (AQP8 [4]; treatment of hepatocytes for 36 hours) [%]
CCCC(=O)Nc1ncnc2c1ncn2[C@@H]1O[C@@H]2COP(=O)(O)O[C@H]2[C@H]1OC(=O)CCC [Bt2cAMP, sodium (3aR,4R,6R,6aR)-4-(6-butanamido-9H-purin-9-yl)-6-[(butanoyloxy)methyl]-2-oxo-tetrahydro-2H-1,3,5,2λ^5-furo[3,4-d][1,3,2] dioxaphosphol-2-olate] | significantly higher than the control | higher cell viability compared to the ones treated with glucagon | significant increase in the cell survival | significant decrease in their cross-sectional area over time | higher density of AQP8 labeling at the cellular membrane | – | – | –
[Cl][Hg][Cl] [HgCl2] | significantly lower cell viability | – | – | no significant shrinkage behavior | – | – | – | –
OCC(O)CO [glycerol] | – | – | – | – | – | significantly higher post-thaw cell viability compared to DMSO | – | –
glucagon | significantly higher than the control | – | significant increase in the cell survival | significant decrease in their cross-sectional area over time | higher density of AQP8 labeling at the cellular membrane | – | 80 | 120

Source: US20150024406A1, “INCREASED AQUAPORIN EXPRESSION ON CELLULAR MEMBRANE TO IMPROVE CRYOPRESERVATION EFFICIENCY” (priority 2013, published 2015)
